What all share (assay type): cell-based
The subject of one test is M. morganii 126/3048. The experiment in a line: MIC determination, broth microdilution (CLSI). As to conditions: for MIC: Morganella morganii, 126/3048, strain 5. A general note: In broth dilution the organism is exposed to a series of concentrations in liquid medium.
A further test deals with A. baumannii ATCC15308. Put plainly: MIC determination, broth microdilution (CLSI). As to conditions: for MIC: Acinetobacter baumannii, ATCC15308, strain 9.
The test system of a further test is C. freundii K21/3034. The experiment in a line: MIC determination, broth microdilution (CLSI). As to conditions: for MIC: Citrobacter freundii, K21/3034, strain 4.
A further test relates to E. coli J62-TEM-3. Put plainly: MIC determination, broth microdilution (CLSI). The conditions noted are these: broth microdilution.
In another test the test system is H. influenzae ATCC 49247. The experiment in a line: MIC determination, broth microdilution (CLSI). As to conditions: broth microdilution; for MIC: Haemophilus influenzae, ATCC49247, strain 12, read-out: MIC strain 12 (H. influenzae ATCC 49247).
In the next test the test system is K. pneumoniae 60. The experiment in a line: MIC determination, broth microdilution (CLSI). The conditions noted are these: for MIC: Klebsiella pneumoniae, 60, strain 2.
In another test the test system is B. fragilis 6688. The experiment in a line: MIC determination, broth microdilution (CLSI). The conditions noted are these: broth microdilution; for MIC: Bacteroides fragilis, 6688, strain 15, read-out: MIC strain 15 (B. fragilis 6688).
Another test concerns S. maltophilia ICB7569. Put plainly: MIC determination, broth microdilution (CLSI).
For another test, the system named is C. perfringens DSM756. Put plainly: microbe, parasite or virus in culture. The conditions noted are these: broth microdilution; for MIC: Clostridium perfringens, DSM756, read-out: MIC strain 16 (C. perfringens DSM756), strain 16.
The test system of the next test is Bacteria. Put plainly: MIC determination in combination with β-lactamase inhibitors (constant 4 μg/mL).
The test system of another test is S. pneumoniae 113. Put plainly: MIC determination, broth microdilution (CLSI). As to conditions: broth microdilution; for MIC: Streptococcus pneumoniae, 113, strain 13, read-out: MIC strain 13 (S. pneumoniae 113).
For another test, the system named is S. aureus 133. Put plainly: MIC determination, broth microdilution (CLSI).
For a further test, the system named is E. coli ATCC25922. Put plainly: MIC determination, broth microdilution (CLSI). As to conditions: for MIC: Escherichia coli, ATCC25922, strain 1.
The next test concerns E. cloacae 34654. Put plainly: MIC determination, broth microdilution (CLSI).
In another test the test system is E. coli J62. Put plainly: MIC determination, broth microdilution (CLSI). The conditions noted are these: broth microdilution; for MIC: Escherichia coli, J62, strain 17, read-out: MIC strain 17 (E. coli J62).
The next test has as its system P. aeruginosa PAO1. The experiment in a line: MIC determination, broth microdilution (CLSI). The conditions noted are these: Pseudomonas aeruginosa, PAO1, strain 6.
Test [1] has as its system P. aeruginosa 2297-con (AmpC derepressed). The experiment in a line: MIC determination, broth microdilution (CLSI). The conditions noted are these: Pseudomonas aeruginosa, read-out: strain 8 MIC, strain 8.
The subject of test [2] is P. aeruginosa 2297 (AmpC wt). Put plainly: MIC determination, broth microdilution (CLSI). As to conditions: Pseudomonas aeruginosa, strain 7.
Where [3] appears, read: Staphylococcus aureus, 133, strain 14, broth microdilution, read-out: MIC strain 14 (S. aureus 133).

In brackets after ≈: the same amount, converted by molar mass. Read-outs that look alike come from different tables or passages of the source.

With `CC1(C)[C@H](NC(=O)/C(=N\OC(CCO)COc2ccc(C(=N)N)cc2)c2csc(N)n2)C(=O)N1OS(=O)(=O)O` (single isomer, unassigned) [Example 81A], the MIC with M. morganii 126/3048 amounted to 8 µg/mL (≈ 13.7 µM); against A. baumannii ATCC15308 it was 8 µg/mL (≈ 13.7 µM); against C. freundii K21/3034 it was 4 µg/mL (≈ 6.83 µM); with H. influenzae ATCC 49247, 2 µg/mL (≈ 3.42 µM); with K. pneumoniae 60, 8 µg/mL (≈ 13.7 µM); in the test on B. fragilis 6688 it was 16 µg/mL (≈ 27.3 µM). The MIC in the test on S. maltophilia ICB7569 (Stenotrophomonas maltophilia, ICB7569, strain 10) came out at 16 µg/mL (≈ 27.3 µM); with C. perfringens DSM756 it was 8 µg/mL (≈ 13.7 µM); in the test on S. pneumoniae 113 it was 0.25 µg/mL (≈ 0.427 µM); in the test on S. aureus 133 (setting [3]) it was 32 µg/mL (≈ 54.6 µM); in the test on E. coli ATCC25922, 4 µg/mL (≈ 6.83 µM); in the test with E. coli J62 it was 8 µg/mL (≈ 13.7 µM). For the same compound, the “MIC strain 18 (E. coli J62-TEM-3)” value in the test on E. coli J62-TEM-3 was 32 µg/mL (≈ 54.6 µM). Further, in the test with Bacteria, the “MIC strain 19 (E. coli J62-TEM-3 + 4 μg/mL clavulanic acid)” value worked out at 8 µg/mL. In the test with Bacteria, the “MIC strain 20 (E. coli J62-TEM-3 + 4 μg/mL sulbactam)” value is 8 µg/mL. In addition, in the test on Bacteria, the “MIC strain 21 (E. coli J62-TEM-3 + 4 μg/mL tazobactam)” value amounted to 8 µg/mL. Also, the “strain 3 MIC” value with E. cloacae 34654 is 16 µg/mL.

On to `CC1(C)[C@H](NC(=O)/C(=N\OCCOc2ccc(C(=N)NCC[N+]3(C)CCCC3)cc2)c2csc(N)n2)C(=O)N1OS(=O)(=O)O.O=C([O-])C(F)(F)F` [Example 79, 1-(2-{[{4-[2-({[(1Z)-1-(2-Amino-1,3-thiazol-4-yl)-2-{[(3S)-2,2-dimethyl-4-oxo-1-(sulfo-oxy)azetidin-3-yl]amino}-2-oxoethylidene]amino}oxy)ethoxy]phenyl}(imino)-methyl]amino}ethyl)-1-methylpyrrolidinium chloride], for which the MIC in the test on M. morganii 126/3048 came out at 1 µg/mL; in the test on P. aeruginosa PAO1, 8 µg/mL; against A. baumannii ATCC15308, 0.5 µg/mL; in test [1], 4 µg/mL; against C. freundii K21/3034, 0.25 µg/mL; in test [2], 8 µg/mL. Besides, the MIC in the test on E. coli J62-TEM-3 (Escherichia coli, J62TEM3, read-out: MIC strain 18 (E. coli J62-TEM-3), strain 18) is 8 µg/mL; in the test with H. influenzae ATCC 49247 it was at most 0.063 µg/mL; with K. pneumoniae 60, 0.5 µg/mL; with B. fragilis 6688 it was 4 µg/mL; with C. perfringens DSM756 it was 2 µg/mL; with S. pneumoniae 113, at most 0.063 µg/mL. Besides, the MIC was at most 0.063 µg/mL in the test on S. aureus 133 (Staphylococcus aureus, 133, strain 11, read-out: strain 11 MIC); 2 µg/mL with S. aureus 133 (setting [3]); 0.5 µg/mL in the test with E. coli ATCC25922; 0.5 µg/mL against E. cloacae 34654 (Enterobacter cloacae, 34654, strain 3); 0.5 µg/mL with E. coli J62. Further, the “MIC strain 19 (E. coli J62-TEM-3 + 4 μg/mL clavulanic acid)” value in the test on Bacteria was 0.5 µg/mL. For the same compound, the “MIC strain 20 (E. coli J62-TEM-3 + 4 μg/mL sulbactam)” value in the test with Bacteria turned out to be 0.5 µg/mL. In addition, the “MIC strain 21 (E. coli J62-TEM-3 + 4 μg/mL tazobactam)” value with Bacteria stood at 0.5 µg/mL.

With `CC1(C)[C@H](NC(=O)/C(=N\OC(CCO)COc2ccc(C(=N)N)cc2)c2csc(N)n2)C(=O)N1OS(=O)(=O)O` (single isomer, unassigned) [Example 81B], the “strain 5 MIC” value in the test on M. morganii 126/3048 (strain 5) was 4 µg/mL. In addition, in the test on A. baumannii ATCC15308 (strain 9), the “strain 9 MIC” value amounted to 8 µg/mL. Also, in the test on C. freundii K21/3034 (strain 4), the “strain 4 MIC” value is 2 µg/mL. Moreover, the “MIC strain 18 (E. coli J62-TEM-3)” value in the test with E. coli J62-TEM-3 was found to be 4 µg/mL (≈ 6.83 µM). Moreover, the “MIC strain 12 (H. influenzae ATCC 49247)” value in the test with H. influenzae ATCC 49247 (strain 12) was 2 µg/mL (≈ 3.42 µM). Also, in the test with K. pneumoniae 60 (strain 2), the “strain 2 MIC” value was found to be 4 µg/mL. The “MIC strain 15 (B. fragilis 6688)” value against B. fragilis 6688 (strain 15) is 16 µg/mL (≈ 27.3 µM). Also, the “strain 10 MIC” value in the test with S. maltophilia ICB7569 (strain 10) came out at 16 µg/mL. Besides, the “MIC strain 16 (C. perfringens DSM756)” value against C. perfringens DSM756 (strain 16) came to 4 µg/mL (≈ 6.83 µM). In the test on Bacteria, the “MIC strain 19 (E. coli J62-TEM-3 + 4 μg/mL clavulanic acid)” value came to 4 µg/mL, the “MIC strain 20 (E. coli J62-TEM-3 + 4 μg/mL sulbactam)” value is 4 µg/mL and the “MIC strain 21 (E. coli J62-TEM-3 + 4 μg/mL tazobactam)” value amounted to 4 µg/mL. Moreover, the “MIC strain 13 (S. pneumoniae 113)” value against S. pneumoniae 113 (strain 13) stood at 0.125 µg/mL (≈ 0.213 µM). The “MIC strain 14 (S. aureus 133)” value with S. aureus 133 (strain 14, broth microdilution) was 32 µg/mL (≈ 54.6 µM). The “strain 1 MIC” value in the test with E. coli ATCC25922 (strain 1) amounted to 2 µg/mL. Moreover, the “strain 3 MIC” value in the test with E. cloacae 34654 worked out at 4 µg/mL. In addition, the “MIC strain 17 (E. coli J62)” value in the test with E. coli J62 (strain 17) was found to be 4 µg/mL (≈ 6.83 µM).

Values taken from patent publication US9556165B2 (priority 2012, dated 2017).
